Data taken from PMC3020970, “K70Q Adds High-Level Tenofovir Resistance to “Q151M Complex” HIV Reverse Transcriptase through the Enhanced Discrimination Mechanism” (PLoS ONE, 2011).
Where “and” joins values, the source holds several entries; their conditions need not be identical. Equal values may be shown once. Read-outs that look alike come from different tables or passages of the source. Marks after values point to notes of the source that are not given here.

Key:
Type in all cases: biochemical
[1] = target: T1, HIV-1 RT K70Q (Human immunodeficiency virus type 1 group M subtype B, UniProt P03366, K669Q); assay: Primer extension assay
T1 construct: made in house; host or cells: Escherichia coli BL21
Protocol: (§1) RT sequences coding for the p66 and p51 subunits of BH10 were cloned in the pRT dual vector, which is derived from pCDF-2 with LIC duet minimal adaptor (Novagen), using restriction sites PpuMI and SacI for the p51 subunit, and SacII and AvrII for the p66 subunit. RT was expressed in the Escherichia coli strain BL21 (Invitrogen) and purified by nickel affinity chromatography and MonoQ anion exchange chromatography. RT concentrations were determined spectrophotometrically based on absorption at […] using a calculated extinction coefficient (261,610 M^−1 cm^−1). The active site concentration of the various RT preparations was calculated as described below.
(§2) DNA oligomers were synthesized by Integrated DNA Technologies (Coralville, IA). An 18-nucleotide DNA primer fluorescently labeled with Cy3 at the 5′ end (P18; 5′-Cy3 GTC CCT GTT CGG GCG CCA-3′) and a 100-nucleotide DNA template (T100; 5′-TAGTGTGTGCCCGTCTGTTGTGTGACTCTGGTAACTAGAGATCCCTCAGACCCTTTTAGTCAGTGTGGAAAATCTCTAGCAGTGGCGCCCGAACAGGGAC-3′) were used in primer extension assays. An 18-nucleotide DNA primer 5′-labeled with Cy3 (P18; 5′-Cy3 GTC ACT GTT CGA GCA CCA-3′) and a 31-nucleotide DNA template (T31; 5′- CCATAGCTAGCATTGGTGCTCGAACAGTGAC-3′) were used in the ATP rescue assay and pre-steady state kinetic experiments.
(§3) The enzyme (20 nM active sites) was incubated with 20 nM template/primer at 37°C in a buffer containing 50 mM Tris-HCl, pH 7.8 and 50 mM NaCl. The DNA synthesis was initiated by the addition of 1 µM dNTP and 10 mM MgCl2. The primer extension assays were carried out in the presence or absence of varying concentrations of TFV-DP. The reactions were terminated after 15 min by adding equal volume of 100% formamide containing traces of bromophenol blue. The extension products were resolved on a 7 M urea-15% polyacrylamide gel, and visualized by phosphor-imaging (FLA 5100, Fujifilm, Tokyo). We followed standard protocols that utilize the Multi Gauge software (Fujifilm) to quantitate primer extension, [44]. The results from dose response experiments were plotted using Prism 4 (GraphPad Software Inc., CA) and IC50 values for TFV-DP were obtained at midpoint concentrations.

[2] = target: T2, HIV-1 RT Q151Mc (Human immunodeficiency virus type 1 group M subtype B, UniProt P03366, A661V/F676L/F715Y/Q750M/V674I); assay: Primer extension assay
T2 construct: made in house; host or cells: Escherichia coli BL21
Protocol: as §1, §2, §3

[3] = target: T3, HIV-1 RT K70Q/Q151Mc (Human immunodeficiency virus type 1 group M subtype B, UniProt P03366, A661V/F676L/F715Y/K669Q/Q750M/V674I); assay: Primer extension assay
T3 construct: made in house; host or cells: Escherichia coli BL21
Protocol: as §1, §2, §3

[4] = target: T4, HIV-1 RT WT (Human immunodeficiency virus type 1 group M subtype B, UniProt P03366); assay: Primer extension assay
T4 construct: made in house; host or cells: Escherichia coli BL21
Protocol: as §1, §2, §3

[5] = target: T2, HIV-1 RT Q151Mc; assay: Pre-steady state kinetics of binding and incorporation
Protocol: (§4) Determination of active site concentrations in the different preparations of WT and mutant RTs were performed using pre-steady state burst experiments. […] The reactions were quenched at various times (10 ms to 5 s) by adding EDTA to a final concentration of 50 mM. The amounts of product (P18-dAMP) were quantitated and fit to the following burst equation: [drawing 1] (1) where A is the amplitude of the burst phase that represents the RT-DNA complex at the start of the reaction, k obs is the observed burst rate constant for dNTP incorporation, k ss is the steady state rate constant, and t is the reaction time. The rate constant of the linear phase (kcat) can be estimated by dividing the slope of the linear phase by the enzyme concentration. The active site concentration and template/primer binding affinity (KD-DNA) were determined by plotting the amplitude (A) against the concentration of template/primer. The data were fit using non-linear regression to a quadratic equation: [drawing 2] (2) where KD is the dissociation constant for the RT-DNA complex, and [RT] is the concentration of active polymerase molecules. Subsequent biochemical experiments were performed using corrected active site concentrations, [43].
(§5) HIV-1 RT (50 nM active sites) was pre-incubated with 50 nM T31/P18 in one syringe (Syringe A), whereas varying concentrations of dNTP and 10 mM MgCl2 were kept in another syringe (Syringe B). The solutions were rapidly mixed to initiate reactions, which were subsequently quenched at various times (5 ms to 10 s) by adding EDTA to a final concentration of 50 mM. The products from each quenched reaction were resolved, quantitated, and plotted as described above. The data were fit by non-linear regression to the burst equation (Eq 1).
(§6) To obtain the dissociation constant KD-dNTP for dNTP binding to the RT-DNA complex, the observed burst rates (kobs) were fit to the hyperbolic equation (Eq. 3) using nonlinear regression: [drawing 3] (3) where kpol is the optimal rate of dNTP incorporation.
(§7) The kinetics of TFV incorporation by the WT and mutant enzymes were carried out in a manner similar to that employed for natural dNTP substrate except the time of reactions. It was noted that the mutant enzymes required longer time to incorporate TFV compared to the WT HIV-1 RT (detailed in the Results section).

[6] = target: T4, HIV-1 RT WT; assay: as above
Protocol: as §4, §5, §6, §7

[7] = with 3.5 mM ATP, read-out: IC50 of TFV-DP, with ATP
[8] = without ATP, read-out: IC50 of TFV-DP, without ATP

SMILES: CC(Cn1cnc2c(N)ncnc21)OCP(=O)(O)OP(=O)(O)OP(=O)(O)O (stereo in doubt) [TFV-DP, tenofovir-diphosphate]
- Excision enhancement due to ATP (IC50 with ATP/IC50 without ATP) [1]: 2.9 fold
- IC50 [1, 7]: 2310 ± 270 nM
- Fold increase in IC50 vs WT RT, with ATP ([1]; with ATP): (1.2) fold
- Fold increase in IC50 vs WT RT, without ATP ([1]; without ATP): (1.3) fold
- IC50 [1, 8]: 802 ± 99 nM
- Excision enhancement due to ATP (IC50 with ATP/IC50 without ATP) [2]: 2.7 fold
- IC50 [2, 7]: 4000 ± 341 nM
- Fold increase in IC50 vs WT RT, with ATP ([2]; with ATP): (2.1) fold
- Fold increase in IC50 vs WT RT, without ATP ([2]; without ATP): (2.3) fold
- IC50 [2, 8]: 1500 ± 90 nM
- Excision enhancement due to ATP (IC50 with ATP/IC50 without ATP) [3]: 2.9 fold
- IC50 [3, 7]: 7000 ± 226 nM
- Fold increase in IC50 vs WT RT, with ATP ([3]; with ATP): (3.8) fold
- Fold increase in IC50 vs WT RT, without ATP ([3]; without ATP): (3.7) fold
- IC50 [3, 8]: 2390 ± 353 nM
- Excision enhancement due to ATP (IC50 with ATP/IC50 without ATP) [4]: 2.9 fold
- IC50 [4, 7]: 1850 ± 197 nM
- Fold increase in IC50 vs WT RT, with ATP ([4]; with ATP): (1) ^b fold
- Fold increase in IC50 vs WT RT, without ATP ([4]; without ATP): (1) ^b fold
- IC50 [4, 8]: 641 ± 83 nM
- Selectivity (k pol/Kd)dATP/(k pol/Kd)TFV-DP [5]: 11
- k pol/Kd [5]: 300000 M⁻¹ s⁻¹ and 300000 ± 60000 M⁻¹ s⁻¹
- k pol ([5]; T31/P18, 37°C): 1.3 ± 0.03 s⁻¹
- Kd ([5]; binding to RT-DNA complex): 4300 ± 800 nM
- Selectivity (k pol/Kd)dATP/(k pol/Kd)TFV-DP [6]: 1.6
- k pol/Kd [6]: 1.47e+06 M⁻¹ s⁻¹ and 1.47e+06 ± 70000 M⁻¹ s⁻¹
- k pol ([6]; T31/P18, 37°C): 2.8 s⁻¹ and 2.8 ± 0.08 s⁻¹
- Kd ([6]; binding to RT-DNA complex): 1900 ± 200 nM
